Source: ChEMBL document CHEMBL3860110, “First Structure-Activity Relationship of 17β-Hydroxysteroid Dehydrogenase Type 14 Nonsteroidal Inhibitors and Crystal Structures in Complex with the Enzyme” (J Med Chem, 2016)

Experiments:
[1] = Dissociation constant, pKa of the compound at OH/C-ring; type: physicochemical
[2] = biological target: T1, 17-beta-hydroxysteroid dehydrogenase type 2 (Homo sapiens, UniProt P37059); experiment: Inhibition of purified human placental microsomal 17beta-HSD2 using [3H]-E2 substrate and NAD+ by HPLC based radioactive […] assay
T1 sequence (P37059 whole entry): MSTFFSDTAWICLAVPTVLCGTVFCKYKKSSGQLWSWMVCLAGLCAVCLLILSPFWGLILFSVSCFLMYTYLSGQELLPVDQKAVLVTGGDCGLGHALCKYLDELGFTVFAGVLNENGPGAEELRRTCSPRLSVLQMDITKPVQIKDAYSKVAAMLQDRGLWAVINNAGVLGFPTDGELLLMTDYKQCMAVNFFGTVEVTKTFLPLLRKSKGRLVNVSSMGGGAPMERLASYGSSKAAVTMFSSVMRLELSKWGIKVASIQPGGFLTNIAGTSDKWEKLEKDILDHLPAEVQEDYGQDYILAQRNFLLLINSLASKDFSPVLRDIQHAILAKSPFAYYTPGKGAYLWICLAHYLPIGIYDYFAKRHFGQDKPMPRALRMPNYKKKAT

[3] = biological target: T2, 17-beta-hydroxysteroid dehydrogenase 14 (Homo sapiens) (UniProt Q9BPX1); experiment: Inhibition of N-terminal 6His-tagged human HSD17B14 expressed in Escherichia coli BL21 (DE3) pLysS at 22.2 uM using E2 substrate and NAD+ incubated for 2 hrs using purified enzyme by fluorimetric assay
T2 sequence (whole entry): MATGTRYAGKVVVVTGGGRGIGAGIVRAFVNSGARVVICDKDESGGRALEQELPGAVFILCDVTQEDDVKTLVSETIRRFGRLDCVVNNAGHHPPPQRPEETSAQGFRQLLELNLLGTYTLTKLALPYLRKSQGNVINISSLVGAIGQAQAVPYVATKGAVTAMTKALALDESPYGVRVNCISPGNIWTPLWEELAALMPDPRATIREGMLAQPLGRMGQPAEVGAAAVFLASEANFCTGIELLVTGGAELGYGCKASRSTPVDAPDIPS

| pKa [1] | Compound | other results |
| --- | --- | --- |
| 8.8 | O=C(c1cccc(O)c1)c1cccc(-c2ccc(O)c(F)c2)n1 | – |
| – | Cc1cc(-c2ccc(C(=O)c3ccc(F)c(O)c3)cc2)ccc1O | IC50 [2]: 0.04 µM |
| 7.8 | O=C(c1ccc(F)c(O)c1)c1cccc(-c2ccc(O)c(F)c2)n1 | – |
| – | COc1ccc(-c2ccc(C(=O)c3ccc(F)c(OC)c3)nc2)cc1F | inhibition [3]: 57% |
